# Assays:
# Assay type in all cases: in vivo
# [1] = tested on: creeping bentgrass (Argostis palustris) fairway; experiment: Example 2, 2013 urea (46-0-0)/canola oil study: turfgrass quality rating; details: scale 1-9, 7 = acceptable
# Text: This study was established on an irrigated, creeping bentgrass (Argostis palustris) fairway (˜0.5 in (1.3 cm) height of cut) on the same research center as in Example 1. The study was established in four replications of a randomized block design, using 2 ft.×10.5 ft. (0.6 m×3.2 m) plots with 6 in. (0.15 m) alleys. Prior to the study, diseases were controlled with as-needed fungicide applications. Fertility was maintained at approximately 0.1 lb. N/1000 ft^2 (0.49 g/m^2)/mo. […] Turfgrass quality ratings and biomass ratings were performed as described in Example 1. Clippings were also collected as described in Example 1.
# Treatments of sprayable urea (46-0-0) (The Andersons, Inc.) hereinafter “Urea (46-0-0)” and Civitas/Harmonizer fungicide/turf pigment (Suncor Energy Corp.) were applied initially on Aug. 22, 2013.
# [2] = tested on: creeping bentgrass (Argostis palustris) fairway; experiment: Example 2: visual growth (biomass) rating; details: scale 1 = least, 9 = most increase
# [3] = tested on: creeping bentgrass (Argostis palustris) fairway; experiment: Example 2: clippings (biomass) dry weight
# Protocol: Objective biomass ratings were also performed based on an increase in dried weight of clippings. Clippings were collected over pre-measured plot areas in each treatment replicate using a Toro® brand walk-behind greens mower Model […] 8000 at the height described in this Example and dried in a drying oven (60° C.) for approximately 48 hours before being weighed. […] Prior to the study, diseases were controlled with as-needed fungicide applications. Fertility was maintained at approximately 0.1 lb.
# [4] = tested on: winter-dormant creeping bentgrass putting green (Agrostis palustris); experiment: Example 4, 2013 spring green-up/winter dormancy break study: turfgrass quality rating; details: May 11, 2013; scale 1-9, 7 = acceptable; per 1000 ft^2, as far as in the treatment: canola oil concentrate (94.7%:4.7%:0.8% oil:Foursome:Silwet L-77) 8 fl. oz., Urea 0.2 lb. N
# Text: This study was established on a brown, desiccated, winter-dormant creeping bentgrass putting green (Agrostis palustris) (˜0.15 in ([…]) height of cut) on the same research center as in previous examples. The study was established in four replications of a randomized block design, using 2 ft.×7.5 ft. (0.6 m×2.3 m) plots with 6 in. (0.15 m) alleys. Treatments were applied with the backpack sprayer described in Example 1 operating at 40 PSI (2.8 kg/cm^2) with a 96 GPA (898 L/ha) spray volume. Treatments were applied in this “green-up”/winter dormancy break study on a 21-day schedule on Apr. 5, 2013, and Apr. 27, 2013 Turfgrass quality ratings in this example included observations of increased density, increased growth, and degree of color intensity change. These observations were taken on May 11, 2013, and were based on a visual 1 (worst) −9 (best) rating scale, with a 7-rating representing acceptable turfgrass “quality.”
# irrigated putting green [5] = experiment: Example 15: visual turfgrass growth rating; details: scale 1-5 (1 = least, 5 = most)
# Protocol: (§1) The study was established in four replications of a randomized block design utilizing 2 ft.×21 ft. plots with 6 inch alleys. Treatments were initially applied on Sep. 13, 2016 with the same sprayer and under the same conditions described in Example 1. Turfgrass quality ratings and biomass ratings were performed as described in Example 1. The plots were trimmed on September 19, October 8, and Oct. 24, 2016 and clippings were also collected as described in Example 1.
# (§2) Treatments were re-applied on Sep. 28, 2016 and Oct. 11, 2016. Turfgrass visual growth and quality ratings were taken periodically, along with turfgrass color ratings as taken with a Spectrum Technologies, Inc. TCM 500 NDVI Color Meter and a Spectrum Technologies, Inc. FieldScout CM 1000 Chlorophyll Meter. The study was irrigated as needed to prevent wilt. No background fertility was applied to the study area. The area was sprayed with 26GT fungicide on Sep. 27, 2016 to control dollar spot disease.
# irrigated putting green [6] = experiment: Example 15: turfgrass color rating, TCM 500 NDVI Color Meter; details: Sept. 16, TCM 500 NDVI Turf Color Meter
# Protocol: as §1, §2
# irrigated putting green [7] = experiment: Example 15: dew rating; details: Sept. 15, visual scale 1 = least
# Protocol: as §1, §2
# Dew reduction (Table 25) is directly related to the amount of bio-adjuvant applied, specifically, the amount of canola oil in the treatment. Dew reduction is relevant to disease control because it can translate into reduced foliar disease pressure, and reduced frost accumulation. […] 15, 2016.
# irrigated putting green [8] = experiment: Example 15: dried clipping weights; details: application interval 14 days; for All Clippings (Dried), Mean Total Clippings: Sept 19-Oct. 24
# Protocol: Some biomass ratings were subjective visual estimations based on appearance of a combination of increased biomass and increased density on a 1 (least increase) to 9 (most increase) scale. Objective biomass ratings were also performed based on an increase in dried weight of clippings. Clippings were collected over pre-measured plot areas in each treatment replicate using a Toro® brand walk-behind greens mower Model Greensmaster 8000 at the height described in this Example and dried in a drying oven (60° C.) for approximately 48 hours before being weighed.
# as §1, §2
# [9] = Sep. 3, 2013, one application, per 1000 ft^2, as far as in the treatment: Urea 0.1 lb. N, Canola Oil Concentrate/Bio-Adjuvant 10 fl. oz., Civitas 8 + Harmonizer 0.5 fl. oz.
# [10] = Sep. 3, 2013, Urea 0.2 lb. N/1000 ft^2, Canola Oil 10 fl. oz. or Civitas 8 + Harmonizer 0.5 fl. oz. where in the treatment
# [11] = Sep. 3, 2013, Urea 0.3 lb. N/1000 ft^2, Canola Oil Bio-Adjuvant 10 fl. oz. or Civitas 8 + Harmonizer 0.5 fl. oz. where in the treatment
# [12] = Trt. 4, 0.1 lb N/1000 sq. ft. /14 days
# [13] = Trt. 5, 0.05 lb N/1000 sq. ft. /14 days
smiles,measurement,setting,value
"NC(N)=O [Urea (46-0-0), urea]",Turfgrass Quality,[1]; [9],6.5 ef
same,Turfgrass Quality,[1]; [10],6.75 de
same,Turfgrass Quality,[1]; [11],7.5 bc
same,Visual Growth (Biomass),[2]; [9],3 ef
same,Visual Growth (Biomass),[2]; [10],3.75 de
same,Visual Growth (Biomass),[2]; [11],3.75 de
same,Clippings (Biomass) Dry wt (g),[3]; [9],7.21 f g
same,Clippings (Biomass) Dry wt (g),[3]; [10],7.87 f g
same,Clippings (Biomass) Dry wt (g),[3]; [11],9.77 bcd g
same,Turfgrass Quality,[4],6.0 c
same,"Visual Turfgrass Growth, MEAN","irrigated putting green [5]; Trt. 4, 0.1 lb N/1000 sq. ft. /14 days, Oct. 6",2.5
same,"Visual Turfgrass Growth, MEAN","irrigated putting green [5]; Trt. 4, 0.1 lb N/1000 sq. ft. /14 days, Sept. 19",2.5
same,"Visual Turfgrass Growth, MEAN","irrigated putting green [5]; Trt. 4, 0.1 lb N/1000 sq. ft. /14 days, Sept. 25",3.8
same,"Visual Turfgrass Growth, MEAN","irrigated putting green [5]; Trt. 5, 0.05 lb N/1000 sq. ft. /14 days, Oct. 6",2.3
same,"Visual Turfgrass Growth, MEAN","irrigated putting green [5]; Trt. 5, 0.05 lb N/1000 sq. ft. /14 days, Sept. 19",2.8
same,"Visual Turfgrass Growth, MEAN","irrigated putting green [5]; Trt. 5, 0.05 lb N/1000 sq. ft. /14 days, Sept. 25",3.3
same,"Turfgrass Color (Greenness), MEAN, NDVI reading",irrigated putting green [6]; [12],0.761
same,"Turfgrass Color (Greenness), MEAN, NDVI reading",irrigated putting green [6]; [13],0.755
same,"Dew rating, Mean",irrigated putting green [7]; [12],5.0
same,"Dew rating, Mean",irrigated putting green [7]; [13],5.0
same,"Dried Clipping Weight, Mean","irrigated putting green [8]; Trt. 4, 0.1 lb N/1000 sq. ft., Oct. 8",62.5 gms
same,"Dried Clipping Weight, Mean","irrigated putting green [8]; Trt. 4, 0.1 lb N/1000 sq. ft., Oct. 24",55.8 gms
same,"All Clippings (Dried), Mean Total Clippings","irrigated putting green [8]; Trt. 4, 0.1 lb N/1000 sq. ft.",189.8 gms
same,"Dried Clipping Weight, Mean","irrigated putting green [8]; Trt. 4, 0.1 lb N/1000 sq. ft., Sept. 19",71.5 gms
same,"Dried Clipping Weight, Mean","irrigated putting green [8]; Trt. 5, 0.05 lb N/1000 sq. ft., Oct. 8",59.5 gms
same,"Dried Clipping Weight, Mean","irrigated putting green [8]; Trt. 5, 0.05 lb N/1000 sq. ft., Oct. 24",46.5 gms
same,"All Clippings (Dried), Mean Total Clippings","irrigated putting green [8]; Trt. 5, 0.05 lb N/1000 sq. ft.",177.3 gms
same,"Dried Clipping Weight, Mean","irrigated putting green [8]; Trt. 5, 0.05 lb N/1000 sq. ft., Sept. 19",71.3 gms
